# Legend:
# Assay in all cases: radiometric filter-binding kinase assay
# TBK1 (human) = TBK1 (human) (UniProt Q9UHD2)
# CaMK1 (human) = CaMK1 (human) (UniProt Q14012)
# FGFR1 (human) = FGFR1 (human) (UniProt P11362)
# CSNK2A1 (human) = CSNK2A1 (human) (UniProt P68400)
# MINK1 (human) = MINK1 (human) (UniProt Q8N4C8)
# [1] = test system: SGK1 (human), O00141 [S422D]
# IGF1R (human) = IGF1R (human) (UniProt P08069)
# CHEK1 (human) = CHEK1 (human) (UniProt O14757)
# JAK2 JH1 JH2 (human) = JAK2 JH1 JH2 (human) (UniProt O60674)
# LCK (mouse) = settings: accession and sequence are those of the human protein
# [2] = test system: PAK2 (human), Q13177 [T402E]
# STK3 (human) = STK3 (human) (UniProt Q13188)
# Sequence of STK3 (human) (Q13188 whole entry, looked up): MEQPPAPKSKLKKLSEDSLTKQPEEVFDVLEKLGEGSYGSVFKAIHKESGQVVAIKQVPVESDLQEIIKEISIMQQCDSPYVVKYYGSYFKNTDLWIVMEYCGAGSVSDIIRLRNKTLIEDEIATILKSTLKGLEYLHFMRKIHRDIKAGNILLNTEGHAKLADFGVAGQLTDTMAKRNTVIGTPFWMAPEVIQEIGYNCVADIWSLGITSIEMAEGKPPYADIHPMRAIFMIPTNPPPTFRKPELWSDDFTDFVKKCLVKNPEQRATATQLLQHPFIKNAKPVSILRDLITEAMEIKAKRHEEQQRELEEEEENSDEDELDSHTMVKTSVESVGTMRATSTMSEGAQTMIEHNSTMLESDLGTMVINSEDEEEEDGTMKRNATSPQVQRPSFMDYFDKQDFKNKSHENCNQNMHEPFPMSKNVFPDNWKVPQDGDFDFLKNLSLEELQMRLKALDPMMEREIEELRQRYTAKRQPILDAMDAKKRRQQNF
# MAPK13 (human) = MAPK13 (human) (UniProt O15264)
# HIPK1 (human) = HIPK1 (human) (UniProt Q86Z02)
# Sequence of HIPK1 (human) (Q86Z02 whole entry, looked up): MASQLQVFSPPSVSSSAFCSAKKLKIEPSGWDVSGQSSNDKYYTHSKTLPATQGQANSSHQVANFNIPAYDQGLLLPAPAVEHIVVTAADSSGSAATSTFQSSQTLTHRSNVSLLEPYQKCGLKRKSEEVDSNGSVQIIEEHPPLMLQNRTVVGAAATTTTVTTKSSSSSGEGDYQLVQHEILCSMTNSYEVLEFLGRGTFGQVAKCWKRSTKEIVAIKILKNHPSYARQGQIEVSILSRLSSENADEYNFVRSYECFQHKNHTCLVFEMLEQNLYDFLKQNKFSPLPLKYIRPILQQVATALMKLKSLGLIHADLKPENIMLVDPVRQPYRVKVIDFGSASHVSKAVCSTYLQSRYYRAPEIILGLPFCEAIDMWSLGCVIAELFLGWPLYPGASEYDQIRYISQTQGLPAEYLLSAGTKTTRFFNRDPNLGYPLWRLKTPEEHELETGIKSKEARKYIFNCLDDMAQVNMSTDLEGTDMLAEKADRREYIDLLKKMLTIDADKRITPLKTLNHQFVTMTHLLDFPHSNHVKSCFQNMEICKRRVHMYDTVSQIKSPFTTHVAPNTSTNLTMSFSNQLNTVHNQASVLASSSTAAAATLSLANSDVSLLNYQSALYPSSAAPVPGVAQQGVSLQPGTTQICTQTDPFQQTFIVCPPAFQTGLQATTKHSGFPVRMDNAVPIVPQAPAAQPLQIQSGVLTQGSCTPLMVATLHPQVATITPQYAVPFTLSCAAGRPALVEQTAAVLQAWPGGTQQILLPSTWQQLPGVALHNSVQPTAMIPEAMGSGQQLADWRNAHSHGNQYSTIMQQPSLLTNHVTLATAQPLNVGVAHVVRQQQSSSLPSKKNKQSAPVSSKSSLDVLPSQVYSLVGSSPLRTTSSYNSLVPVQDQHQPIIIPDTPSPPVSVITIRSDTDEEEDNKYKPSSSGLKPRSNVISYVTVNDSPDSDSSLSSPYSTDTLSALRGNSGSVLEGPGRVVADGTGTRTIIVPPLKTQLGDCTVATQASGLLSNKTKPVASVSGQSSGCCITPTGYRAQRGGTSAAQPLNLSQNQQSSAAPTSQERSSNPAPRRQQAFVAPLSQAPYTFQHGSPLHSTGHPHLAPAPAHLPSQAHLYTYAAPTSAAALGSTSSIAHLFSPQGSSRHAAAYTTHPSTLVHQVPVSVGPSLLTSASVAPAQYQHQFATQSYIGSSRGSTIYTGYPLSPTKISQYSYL
# MAPKAPK5 (human) = MAPKAPK5 (human) (UniProt Q8IW41)
# PHKG1 (human) = PHKG1 (human) (UniProt Q16816)
# TAOK1 (human) = TAOK1 (human) (UniProt Q7L7X3)
# DYRK3 (human) = DYRK3 (human) (UniProt O43781)
# Sequence of DYRK3 (human) (O43781 whole entry, looked up): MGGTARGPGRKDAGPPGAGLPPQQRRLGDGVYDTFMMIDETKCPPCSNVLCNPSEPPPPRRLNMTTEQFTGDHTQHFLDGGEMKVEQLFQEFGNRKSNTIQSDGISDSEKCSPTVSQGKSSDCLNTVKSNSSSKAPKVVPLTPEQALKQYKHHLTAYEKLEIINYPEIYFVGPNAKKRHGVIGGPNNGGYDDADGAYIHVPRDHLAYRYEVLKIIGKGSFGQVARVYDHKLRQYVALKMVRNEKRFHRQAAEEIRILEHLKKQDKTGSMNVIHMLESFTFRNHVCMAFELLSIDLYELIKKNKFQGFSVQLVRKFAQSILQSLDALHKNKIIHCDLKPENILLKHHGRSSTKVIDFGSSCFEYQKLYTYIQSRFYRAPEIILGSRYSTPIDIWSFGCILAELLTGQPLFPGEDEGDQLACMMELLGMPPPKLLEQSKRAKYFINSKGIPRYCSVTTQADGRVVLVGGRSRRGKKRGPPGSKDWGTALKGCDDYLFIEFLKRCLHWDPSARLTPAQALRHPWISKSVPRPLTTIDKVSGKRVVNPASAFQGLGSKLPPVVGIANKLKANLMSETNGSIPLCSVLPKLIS
# GCK (human) = GCK (human) (UniProt Q12851)
# CAMKK2 (human) = CAMKK2 (human) (UniProt Q96RR4)
# Sequence of CAMKK2 (human) (Q96RR4 whole entry, looked up): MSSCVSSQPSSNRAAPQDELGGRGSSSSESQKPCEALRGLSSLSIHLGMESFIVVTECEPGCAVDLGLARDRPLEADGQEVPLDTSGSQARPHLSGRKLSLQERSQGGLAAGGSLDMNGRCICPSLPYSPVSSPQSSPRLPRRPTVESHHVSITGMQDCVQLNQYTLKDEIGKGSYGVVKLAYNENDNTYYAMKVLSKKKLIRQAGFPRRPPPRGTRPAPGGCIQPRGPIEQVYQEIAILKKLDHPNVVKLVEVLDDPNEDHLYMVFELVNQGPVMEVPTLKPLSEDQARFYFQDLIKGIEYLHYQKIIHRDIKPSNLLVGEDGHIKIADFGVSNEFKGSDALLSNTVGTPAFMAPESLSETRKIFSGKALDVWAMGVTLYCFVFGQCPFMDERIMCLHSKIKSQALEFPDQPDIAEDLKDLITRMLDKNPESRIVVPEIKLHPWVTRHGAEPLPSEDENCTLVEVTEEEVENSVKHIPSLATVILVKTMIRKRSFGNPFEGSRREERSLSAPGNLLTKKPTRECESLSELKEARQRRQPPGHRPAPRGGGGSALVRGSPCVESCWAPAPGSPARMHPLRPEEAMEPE
# MAPK8 (human) = MAPK8 (human) (UniProt P45983)
# YES1 (human) = YES1 (human) (UniProt P07947)
# MAPK11 (human) = MAPK11 (human) (UniProt Q15759)
# MARK3 (human) = MARK3 (human) (UniProt P27448)
# CLK2 (human) = CLK2 (human) (UniProt P49760)
# Sequence of CLK2 (human) (P49760 whole entry, looked up): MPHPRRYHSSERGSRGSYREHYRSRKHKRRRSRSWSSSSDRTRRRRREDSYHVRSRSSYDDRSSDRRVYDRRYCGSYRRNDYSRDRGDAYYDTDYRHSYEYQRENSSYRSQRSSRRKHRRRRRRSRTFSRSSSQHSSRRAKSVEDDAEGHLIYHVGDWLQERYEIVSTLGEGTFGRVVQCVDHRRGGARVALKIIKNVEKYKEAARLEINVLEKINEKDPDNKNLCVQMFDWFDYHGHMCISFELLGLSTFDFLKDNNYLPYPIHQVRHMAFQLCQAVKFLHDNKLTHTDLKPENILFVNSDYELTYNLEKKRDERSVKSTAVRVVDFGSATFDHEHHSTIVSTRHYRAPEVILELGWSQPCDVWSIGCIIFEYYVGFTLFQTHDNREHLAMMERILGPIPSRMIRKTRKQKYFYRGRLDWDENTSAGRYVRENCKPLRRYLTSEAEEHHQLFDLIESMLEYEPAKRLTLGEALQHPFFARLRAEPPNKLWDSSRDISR
# BRSK2 (human) = BRSK2 (human) (UniProt Q8IWQ3)
# Sequence of BRSK2 (human) (Q8IWQ3 whole entry, looked up): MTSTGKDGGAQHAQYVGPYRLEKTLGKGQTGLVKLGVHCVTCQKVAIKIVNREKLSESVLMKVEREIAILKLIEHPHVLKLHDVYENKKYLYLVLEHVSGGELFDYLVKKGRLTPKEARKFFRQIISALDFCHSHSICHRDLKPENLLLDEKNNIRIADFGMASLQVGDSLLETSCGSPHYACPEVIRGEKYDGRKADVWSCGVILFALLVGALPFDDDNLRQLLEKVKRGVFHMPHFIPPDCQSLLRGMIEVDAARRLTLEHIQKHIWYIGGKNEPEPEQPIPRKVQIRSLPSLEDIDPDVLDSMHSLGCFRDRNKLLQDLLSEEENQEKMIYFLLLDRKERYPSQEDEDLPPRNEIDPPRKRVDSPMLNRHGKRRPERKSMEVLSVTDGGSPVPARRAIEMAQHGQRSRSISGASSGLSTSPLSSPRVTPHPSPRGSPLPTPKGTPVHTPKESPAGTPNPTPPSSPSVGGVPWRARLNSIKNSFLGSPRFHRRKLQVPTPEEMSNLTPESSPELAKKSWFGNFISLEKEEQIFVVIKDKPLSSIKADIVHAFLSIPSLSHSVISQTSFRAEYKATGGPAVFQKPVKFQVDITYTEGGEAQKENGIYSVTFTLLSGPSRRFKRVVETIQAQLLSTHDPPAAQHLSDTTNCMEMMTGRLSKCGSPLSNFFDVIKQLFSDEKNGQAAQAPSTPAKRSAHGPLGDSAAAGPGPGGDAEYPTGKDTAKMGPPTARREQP
# ROCK2 (rat) = settings: accession and sequence are those of the human protein
# SRPK1 (human) = SRPK1 (human) (UniProt Q96SB4)
# HIPK2 (human) = HIPK2 (human) (UniProt Q9H2X6)
# PIM3 (human) = PIM3 (human) (UniProt Q86V86)
# DAPK1 (human) = DAPK1 (human) (UniProt P53355)
# AURKB (human) = AURKB (human) (UniProt Q96GD4)
# Sequence of AURKB (human) (Q96GD4 whole entry, looked up): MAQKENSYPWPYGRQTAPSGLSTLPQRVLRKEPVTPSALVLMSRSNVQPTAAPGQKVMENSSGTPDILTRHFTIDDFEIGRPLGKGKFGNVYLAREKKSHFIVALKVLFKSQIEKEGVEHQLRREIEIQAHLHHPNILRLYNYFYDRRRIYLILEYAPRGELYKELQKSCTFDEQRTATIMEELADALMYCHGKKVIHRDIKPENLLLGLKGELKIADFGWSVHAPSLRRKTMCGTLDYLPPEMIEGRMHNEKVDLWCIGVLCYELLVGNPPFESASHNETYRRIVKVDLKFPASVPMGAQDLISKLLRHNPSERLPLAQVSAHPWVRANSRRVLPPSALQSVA
# DYRK1A (human) = DYRK1A (human) (UniProt Q13627)
# EPHB2 (human) = EPHB2 (human) (UniProt P29323)
# MAPK10 (human) = MAPK10 (human) (UniProt P53779)
# MKNK1 (human) = MKNK1 (human) (UniProt Q9BUB5)
# Sequence of MKNK1 (human) (Q9BUB5 whole entry, looked up): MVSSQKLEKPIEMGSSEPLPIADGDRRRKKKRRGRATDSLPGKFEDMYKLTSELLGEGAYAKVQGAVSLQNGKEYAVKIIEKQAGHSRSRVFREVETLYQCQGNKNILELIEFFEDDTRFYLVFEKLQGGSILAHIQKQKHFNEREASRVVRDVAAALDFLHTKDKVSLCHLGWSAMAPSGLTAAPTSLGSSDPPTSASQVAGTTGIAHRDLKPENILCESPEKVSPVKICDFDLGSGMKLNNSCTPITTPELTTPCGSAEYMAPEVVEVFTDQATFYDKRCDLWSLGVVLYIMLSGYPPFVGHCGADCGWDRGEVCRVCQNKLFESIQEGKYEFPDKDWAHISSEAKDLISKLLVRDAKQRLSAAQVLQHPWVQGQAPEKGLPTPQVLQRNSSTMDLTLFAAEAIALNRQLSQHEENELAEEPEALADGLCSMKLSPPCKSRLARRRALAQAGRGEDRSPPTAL
smiles,measurement,setting,value
O=C(Nc1nc2cc(C(F)(F)F)cc(NC3CC3)n2n1)c1cccnc1,residual activity,TBK1 (human); compound 0.01 µM,99%
same,residual activity,TBK1 (human); compound 0.1 µM,101%
same,residual activity,TBK1 (human); compound 1.0 µM,102%
same,residual activity,CaMK1 (human); compound 0.01 µM,116%
same,residual activity,CaMK1 (human); compound 0.1 µM,128%
same,residual activity,CaMK1 (human); compound 1.0 µM,109%
same,residual activity,FGFR1 (human); compound 0.01 µM,111%
same,residual activity,FGFR1 (human); compound 0.1 µM,105%
same,residual activity,FGFR1 (human); compound 1.0 µM,101%
same,residual activity,CSNK2A1 (human); compound 0.01 µM,99%
same,residual activity,CSNK2A1 (human); compound 0.1 µM,127%
same,residual activity,CSNK2A1 (human); compound 1.0 µM,102%
same,residual activity,MINK1 (human); compound 0.01 µM,125%
same,residual activity,MINK1 (human); compound 0.1 µM,113%
same,residual activity,MINK1 (human); compound 1.0 µM,120%
same,residual activity,[1]; compound 0.01 µM,103%
same,residual activity,[1]; compound 1.0 µM,100%
same,residual activity,IGF1R (human); compound 0.01 µM,88%
same,residual activity,IGF1R (human); compound 0.1 µM,89%
same,residual activity,IGF1R (human); compound 1.0 µM,79%
same,residual activity,CHEK1 (human); compound 0.01 µM,103%
same,residual activity,CHEK1 (human); compound 0.1 µM,99%
same,residual activity,CHEK1 (human); compound 1.0 µM,104%
same,residual activity,JAK2 JH1 JH2 (human); compound 0.01 µM,114%
same,residual activity,JAK2 JH1 JH2 (human); compound 0.1 µM,100%
same,residual activity,JAK2 JH1 JH2 (human); compound 1.0 µM,100%
same,residual activity,LCK (mouse); compound 0.01 µM,106%
same,residual activity,LCK (mouse); compound 0.1 µM,97%
same,residual activity,LCK (mouse); compound 1.0 µM,95%
same,residual activity,[2]; compound 0.01 µM,110%
same,residual activity,[2]; compound 0.1 µM,126%
same,residual activity,[2]; compound 1.0 µM,104%
same,residual activity,STK3 (human); compound 0.01 µM,99%
same,residual activity,STK3 (human); compound 0.1 µM,116%
same,residual activity,STK3 (human); compound 1.0 µM,93%
same,residual activity,MAPK13 (human); compound 0.01 µM,102%
same,residual activity,MAPK13 (human); compound 0.1 µM,90%
same,residual activity,MAPK13 (human); compound 1.0 µM,90%
same,residual activity,HIPK1 (human); compound 0.01 µM,96%
same,residual activity,HIPK1 (human); compound 0.1 µM,96%
same,residual activity,HIPK1 (human); compound 1.0 µM,92%
same,residual activity,MAPKAPK5 (human); compound 0.01 µM,97%
same,residual activity,MAPKAPK5 (human); compound 0.1 µM,112%
same,residual activity,MAPKAPK5 (human); compound 1.0 µM,98%
same,residual activity,PHKG1 (human); compound 0.01 µM,104%
same,residual activity,PHKG1 (human); compound 0.1 µM,115%
same,residual activity,PHKG1 (human); compound 1.0 µM,92%
same,residual activity,TAOK1 (human); compound 0.01 µM,91%
same,residual activity,TAOK1 (human); compound 0.1 µM,101%
same,residual activity,TAOK1 (human); compound 1.0 µM,105%
same,residual activity,DYRK3 (human); compound 0.01 µM,92%
same,residual activity,DYRK3 (human); compound 0.1 µM,119%
same,residual activity,DYRK3 (human); compound 1.0 µM,91%
same,residual activity,GCK (human); compound 0.01 µM,112%
same,residual activity,GCK (human); compound 0.1 µM,103%
same,residual activity,GCK (human); compound 1.0 µM,108%
same,residual activity,CAMKK2 (human); compound 0.01 µM,108%
same,residual activity,CAMKK2 (human); compound 0.1 µM,96%
same,residual activity,CAMKK2 (human); compound 1.0 µM,105%
same,residual activity,MAPK8 (human); compound 0.01 µM,87%
same,residual activity,MAPK8 (human); compound 0.1 µM,93%
same,residual activity,MAPK8 (human); compound 1.0 µM,91%
same,residual activity,YES1 (human); compound 0.01 µM,81%
same,residual activity,YES1 (human); compound 0.1 µM,87%
same,residual activity,YES1 (human); compound 1.0 µM,74%
same,residual activity,MAPK11 (human); compound 0.01 µM,106%
same,residual activity,MAPK11 (human); compound 0.1 µM,121%
same,residual activity,MAPK11 (human); compound 1.0 µM,107%
same,residual activity,MARK3 (human); compound 0.01 µM,83%
same,residual activity,MARK3 (human); compound 0.1 µM,87%
same,residual activity,MARK3 (human); compound 1.0 µM,86%
same,residual activity,CLK2 (human); compound 0.01 µM,101%
same,residual activity,CLK2 (human); compound 0.1 µM,82%
same,residual activity,CLK2 (human); compound 1.0 µM,40%
same,residual activity,BRSK2 (human); compound 0.01 µM,116%
same,residual activity,BRSK2 (human); compound 0.1 µM,116%
same,residual activity,BRSK2 (human); compound 1.0 µM,109%
same,residual activity,ROCK2 (rat); compound 0.01 µM,105%
same,residual activity,ROCK2 (rat); compound 0.1 µM,106%
same,residual activity,ROCK2 (rat); compound 1.0 µM,97%
same,residual activity,SRPK1 (human); compound 0.01 µM,100%
same,residual activity,SRPK1 (human); compound 0.1 µM,90%
same,residual activity,SRPK1 (human); compound 1.0 µM,102%
same,residual activity,HIPK2 (human); compound 0.01 µM,100%
same,residual activity,HIPK2 (human); compound 0.1 µM,116%
same,residual activity,HIPK2 (human); compound 1.0 µM,105%
same,residual activity,PIM3 (human); compound 0.01 µM,104%
same,residual activity,PIM3 (human); compound 0.1 µM,101%
same,residual activity,PIM3 (human); compound 1.0 µM,95%
same,residual activity,DAPK1 (human); compound 0.01 µM,112%
same,residual activity,DAPK1 (human); compound 0.1 µM,95%
same,residual activity,DAPK1 (human); compound 1.0 µM,95%
same,residual activity,AURKB (human); compound 0.01 µM,93%
same,residual activity,AURKB (human); compound 0.1 µM,103%
same,residual activity,AURKB (human); compound 1.0 µM,89%
same,residual activity,DYRK1A (human); compound 0.01 µM,94%
same,residual activity,DYRK1A (human); compound 0.1 µM,92%
same,residual activity,DYRK1A (human); compound 1.0 µM,81%
same,residual activity,EPHB2 (human); compound 0.1 µM,108%
same,residual activity,EPHB2 (human); compound 1.0 µM,95%
same,residual activity,MAPK10 (human); compound 0.01 µM,85%
same,residual activity,MAPK10 (human); compound 0.1 µM,88%
same,residual activity,MAPK10 (human); compound 1.0 µM,79%
same,residual activity,MKNK1 (human); compound 0.01 µM,94%
same,residual activity,MKNK1 (human); compound 0.1 µM,99%
same,residual activity,MKNK1 (human); compound 1.0 µM,98%
